Measured values published in EP1175907A1, “REMEDIES” (Takara Shuzo Co, Ltd., priority 1999, dated 2000).
Several values for one entry are separate records, joined by “and”; a condition that tells them apart may be missing. Identical values can stand only once. *1 amine or outer side, *2 acyl side, *3 side chain or, on linkers, in order; H or OH if unused. Where a SMILES comes first, the peptide text is derived from it. Bridges are numbered along the chain shown (N, C = ends). Roman numbers before positions name the chains, in order. [ ]: non-standard residue; d: D form. Actinocin(9to1) = Cc1c2oc3c(C)ccc(C(=O)[*:1])c3nc-2c(C(=O)[*:2])c(N)c1=O; NMeV = CN[C@H](C(=O)O)C(C)C; Sar = CNCC(=O)O

Tests used:
MRC-5 cells [1] = assay: HGF production in MRC-5 cells with actinomycin D (RNA synthesis inhibitor); format: cell-based, Human; conditions: for Amount of HGF Produced (in Medium): control = 100%
Experimental: (3) Five-hundred microliters of MRC-5 cells (CCL171: manufactured by DAINIPPON PHARMACEUTICAL CO., LTD., code. 02-021) suspended in a DME medium containing 10% fetal bovine serum so as to have a concentration of 1 × 10^5 cells/ml were added into each well of a 48-well cell culture plate. The cells were cultured at 37°C for 24 hours in the presence of 5% CO2, and then the medium was exchanged for a DME medium containing 1% fetal bovine serum. Thereafter, actinomycin D (RNA synthesis inhibitor: manufactured by Sigma) was added thereto so as to have a final concentration of 0, 0.1, or 1 µg/ml, and a sample to be analyzed was further added thereto. The cells were then cultured for 24 hours. This medium was collected, and the amount of HGF in the medium was determined by using Quantikine Human Hepatocyte Growth Factor (HGF) ELISA Kit (manufactured by Funakoshi, Code. RS-0641-00). As to the amount of HGF produced, negative control was regarded as 100%. As to the inhibitory ratio, the inhibitory ratio (%) of the actinomycin D-added fraction was calculated on the basis of the amount of HGF produced when the fucoidan was added alone at each concentration. The fucoidan derived from Kjellmaniella crassifolia described in item (1) of Reference Example 1 was added so as to have a final concentration of 1, 10 or 100 µg/ml. As the negative control, distilled water was added in the same volume as that of the sample. Each experiment was carried out twice, and an average value was taken. […] It was clarified from these findings that RNA synthesis was probably involved in the induction of HGF production by the fucoidan, not simply freeing of HGF from the cells.
(4) Five-hundred microliters of MRC-5 cells (CCL171: manufactured by DAINIPPON PHARMACEUTICAL CO., LTD., code. 02-021) suspended in a DME medium containing 10% fetal bovine serum so as to have a concentration of 1 × 10^5 cells/ml were added into each well of a 48-well cell culture plate. The cells were cultured at 37°C for 24 hours in the presence of 5% CO2, and then the medium was exchanged for a DME medium containing 1% fetal bovine serum. Thereafter, actinomycin D (RNA synthesis inhibitor: manufactured by Sigma) was added thereto so as to have a final concentration of 0, 0.1, or 1 µg/ml, and a sample was further added thereto. The cells were then cultured for 24 hours. This medium was collected, and the amount of HGF in the medium was determined by using Quantikine Human Hepatocyte Growth Factor (HGF) ELISA Kit (manufactured by Funakoshi, Code. RS-0641-00). In addition, the cells were washed with PBS, and thereafter dissolved in 500 µl of a cytolytic buffer (50 mM HEPES, pH 7.4; 10 mM EDTA, 0.1% Triton x 100; 1 mM PMSF; 1 µg/ml pepstatin A and 1 µg/ml, leupeptin). Further, in order to completely dissolve the cells, the mixture was subjected to sonication treatment, and then centrifuged, to give a supernatant (cell extract). The amount of HGF in the cell was determined in the same manner as that of the concentration of HGF in the medium. As to the amount of HGF produced, negative control was regarded as 100%. As to the inhibitory ratio, the inhibitory ratio (%) of the actinomycin D-added fraction was calculated on the basis of the amount of HGF produced when 7-12SFd-F was added alone at each concentration. 7-12SFd-F was added so as to have a final concentration of 1,10 or 100 µg/ml. As the negative control, distilled water was added in the same volume as that of the sample. Each experiment was carried out three times, and an average value was taken. […] It was clarified from these findings that RNA synthesis was probably involved in the induction of HGF production by 7-12SFd-F, not simply freeing of HGF from the cells.

MRC-5 cells [2] = assay: mRNA of HGF in MRC-5 cells (RT-PCR); format: cell-based; conditions: 7-12SFd-F 100 µg/ml, LM Heparin 1 µg/ml or PGE1 1 µM; Hours 0 to 24, compared to control
Experimental: MRC-5 cells (CCL 171: manufactured by DAINIPPON PHARMACEUTICAL CO., LTD., code. 02-021) cultured in a DMEM medium containing 10% fetal bovine serum were suspended in the DMEM medium containing 10% fetal bovine serum so as to have a concentration of 2.5 × 10^5 cells/ml, and added into each well of a 6-well cell culture plate. The cells were cultured at 37°C for 24 hours in the presence of 5% CO2. Thereafter, the medium was exchanged for a DMEM medium containing 1% fetal bovine serum, and the cells were further cultured for 22 hours. Thereafter, the medium was exchanged for each medium added with 7-12SFd-F prepared in item (3) of Reference Example 2 so as to have a final concentration of 100 µg/ml, LM Heparin (manufactured by Celsus Laboratories) so as to have a final concentration of 1 µg/ml, or prostaglandin E1 (PGE1) (manufactured by Wako Pure Chemicals Industries, Ltd.) dissolved in dimethyl sulfoxide (DMSO) so as to have a final concentration of 1 µM. As a medium for control group, the medium added with DMSO was used. Here, the solvent of each additive mentioned above was added so as to have a concentration of 1% in all cases. […] In addition, in order to carry out a semi-quantitative experiment, â-actin, a housekeeping gene, was also detected. […] In all of the samples, mRNA of HGF was detected. […]

MRC-5 cells [3] = assay: synergistic effect on HGF production with PGE1 or IL-1α in MRC-5 cells; format: cell-based, Human; conditions: control = 100%
Text: (1) Synergistic effect for the induction action for HGF production of the fucoidan derived from Kjellmaniella crassifolia described in item (1) of Reference Example 1 with prostaglandin or IL-1 was studied in the same manner as that in item (1) of Example 1.
Specifically, the synergistic effect for the induction activity for HGF production was studied by simultaneously adding the fucoidan and PGE1 (manufactured by Wako Pure Chemicals Industries, Ltd.) or IL-1α (manufactured by Genzyme).
The fucoidan sample was added so as to have a final concentration of 1, 10 or 100 µg/ml. PGE1 was added so as to have a concentration of 0.1 or 1 µM, the IL-1α was added so as to have a concentration of 1 ng/ml. As a control, distilled water was added in same volume as that of the sample.
The synergistic effect was studied in comparison to the amount produced of a case where the fucoidan sample or PGE1 or IL-1α was added alone.
In Tables 35 and 36, the amount of HGF produced of the control was regarded as 100%. Each experiment was carried out twice, and an average value was taken. […]
(2) Synergistic effect for the induction action for HGF production of 7-12SFd-F of Reference Example 2 with prostaglandin or IL-1 was studied in the same manner as that in item (1) of Example 2. […]

NHDF cells = assay: HGF in medium of NHDF cells with or without minoxidil; format: cell-based, human
Experimental: The cells were cultured for 24 hours. […] Also, the same steps were carried out for the group added with only the sample without adding minoxidil. The medium was collected, and the amount of HGF in the medium was determined by using Quantikine Human Hepatocyte Growth Factor (HGF) ELISA Kit. […] As a negative control, distilled water was added in the same volume as that of the sample. Each experiment was carried out three times, and an average value was taken.

Cc1c2oc3c(C)ccc(C(=O)N[C@@H]4C(=O)N[C@H](C(C)C)C(=O)N5CCC[C@H]5C(=O)N(C)CC(=O)N(C)[C@@H](C(C)C)C(=O)O[C@@H]4C)c3nc-2c(C(=O)N[C@@H]2C(=O)N[C@H](C(C)C)C(=O)N3CCC[C@H]3C(=O)N(C)CC(=O)N(C)[C@@H](C(C)C)C(=O)O[C@@H]2C)c(N)c1=O [Actinomycin D, actinomycin D] (I: T[dV]P[Sar][NMeV] / II: T[dV]P[Sar][NMeV]; ester I:1-I:C, II:1-II:C; linker I:N-II:N via Actinocin(9to1))
Amount of HGF Produced (Total in Cells and in Medium) (MRC-5 cells [1]; Actinomycin D 0.1 µg/ml alone): 61% | Inhibitory Ratio Where Actinomycin D Non-Added Group Was Regarded as 100% (Total in Cells and in Medium) (MRC-5 cells [1]; Actinomycin D 0.1 µg/ml alone): 39% | Inhibitory Ratio Where Actinomycin D Non-Added Group Was Regarded as 100% (in Medium) (MRC-5 cells [1]; Actinomycin D 0.1 µg/ml alone): 21% and 24% | Amount of HGF Produced (in Medium) (MRC-5 cells [1]; Actinomycin D 0.1 µg/ml alone): 79% and 76% | Amount of HGF Produced (Total in Cells and in Medium) (MRC-5 cells [1]; Actinomycin D 1 µg/ml alone): 59% | Inhibitory Ratio Where Actinomycin D Non-Added Group Was Regarded as 100% (Total in Cells and in Medium) (MRC-5 cells [1]; Actinomycin D 1 µg/ml alone): 41% | Inhibitory Ratio Where Actinomycin D Non-Added Group Was Regarded as 100% (in Medium) (MRC-5 cells [1]; Actinomycin D 1 µg/ml alone): 17% and 20% | Amount of HGF Produced (in Medium) (MRC-5 cells [1]; Actinomycin D 1 µg/ml alone): 83% and 80%

CCCCC[C@H](O)/C=C/[C@H]1[C@H](O)CC(=O)[C@@H]1CCCCCCC(=O)O [PGE1, prostaglandin E1]
induction of mRNA of HGF (MRC-5 cells [2]): found | Amount of HGF Produced (MRC-5 cells [3]; PGE1 0.1 µM alone): 119% and 123% | Amount of HGF Produced (MRC-5 cells [3]; PGE1 1 µM alone): 157% and 170%

Nc1cc(N2CCCCC2)nc(N)[n+]1[O-] [Minoxidil, minoxidil]
Concentration of HGF in Medium (NHDF cells; Minoxidil 10 µg/ml alone): 126.04 pg/mL | Concentration of HGF in Medium (NHDF cells; Minoxidil 100 µg/ml alone): 148.83 pg/mL and 137.20 pg/mL
